Measured values taken from US11753407B2, “Compounds for treating spinal muscular atrophy” (PTC Therapeutics, Inc., priority 2012, dated 2023).

Test system: human SMN1 minigene mRNA (SMN1-A minigene) in HEK293H cells
Assay: Human SMN1 minigene mRNA end-point semi-quantitative RT-PCR splicing assay in cultured cells
Type: cell-based
Details: HEK293H cells transfected with SMN1-A minigene, increasing concentrations, 7 hours, end-point RT-PCR (FIG. 17)
Description: The RT-PCR assay is used to visualize and quantify the levels of the human SMN1 minigene full length and Δ7 mRNA in primary cells and cell lines expressing the human SMN1 minigene construct treated with a test compound.
Using the procedure for the preparation of the SMN2 minigene construct described in Biological Example 1, the SMN1 version of the minigene is generated by replacing the sixth nucleotide of exon 7 (a thymine residue) of the SMN2-A minigene construct to cytosine using site-directed mutagenesis. Thus, similar to the SMN2-A minigene construct, the SMN1 minigene construct has a single adenine residue inserted after nucleic residue 48 of exon 7. The SMN1 minigene construct is referred to as SMN1-A.
Protocol. HEK293H cells (10,000 cells/well/199 μL) were transfected, using FuGENE-6 reagent, in a 96-well plate with 15 ng of the SMN1-A minigene reporter plasmid per well. Cells were incubated for 24 hours following transfection. Test compounds were serially diluted 3.16-fold in 100% DMSO to generate a 7-point concentration curve. A solution of test compound (1 μL, 200× in DMSO) was added to each test well. 1 μL DMSO was added to each control well. The plate was incubated for 7 hours in a cell culture incubator (37° C., 5% CO2, 100% relative humidity). The cells were then lysed in Cells-To-Ct lysis buffer and the lysates were stored at −80° C.
Two SMN spliced mRNA are generated from the SMN1 minigene. The term “SMN1 minigene FL” refers to the first spliced product containing exon 7, corresponding to full length SMN1 mRNA. The term “SMN1 minigene Δ7” refers to the second product lacking exon 7.
SMN minigene FL and Δ7 mRNA are amplified using the primers in Table 11. Primer SMN Forward C (SEQ ID NO. 11) hybridizes to a nucleotide sequence in exon 6 (nucleotide 43 to nucleotide 63), primer SMN Reverse A (SEQ ID NO. 2) hybridizes to a nucleotide sequence in the coding sequence of Firefly luciferase. The combination of these two oligonucleotides detects only SMN1 or SMN2 minigenes (RT-PCR) and will not detect endogenous SMN1 or SMN2 genes. Since the HEK293H cells used in Example 16 were transfected with only the human SMN1 minigene, RT-PCR can visualize and quantify only SMN1 minigene full-length and SMN1 minigene Δ7 mRNA.
To synthesize cDNA, 5 μL of lysate, 4 μL of 5× iScript reaction mix, 1 μL of reverse transcriptase, and 10 μL of water are combined and incubated 5 min at 25° C. followed by 30 min at 42° C., followed by 5 min at 85° C. The cDNA solution is stored at −20° C.
To perform endpoint PCR, 5 μL of cDNA, 0.2 μL of 100 μM forward primer, 0.2 μL of 100 μM reverse primer, and 22.5 μL of polymerase super mix are combined in a 96 well semiskirted PCR plate. PCR is carried out at the following temperatures for the indicated time: Step 1: 94° C. (2 min), Step 2: 94° C. […]

| Compound | SMN1 minigene FL mRNA | SMN1 minigene Δ7 mRNA |
| --- | --- | --- |
| COc1ccc(-c2cc(=O)n3cc(N4CCNCC4)ccc3n2)cc1OC [Cpd 6, 2-(3,4-dimethoxyphenyl)-7-(piperazin-1-yl)-4H-pyrido[1,2-a]pyrimidin-4-one] | progressively more SMN1 minigene FL mRNA | less SMN1 minigene Δ7 mRNA |
| Cc1cn2nc(-c3cc(=O)n4cc(N5CCN(C)CC5)ccc4n3)cc2c(C)n1 [Cpd 170, 2-(4,6-dimethylpyrazolo[1,5-a]pyrazin-2-yl)-7-(4-methylpiperazin-1-yl)-4H-pyrido[1,2-a]pyrimidin-4-one] | progressively more SMN1 minigene FL mRNA | less SMN1 minigene Δ7 mRNA |
